# Assay results taken from publication PMC6804466 (Acta Pharmaceutica Sinica. B, 2019).
# Marks after values point to notes of the source that are not given here.
# Key:
# Mock-HEK293 cells = test: Cytotoxicity of Imp, CCK-8 assay, Mock-HEK293 cells; assay type: cell-based, human; conditions: 24 h; for Effect of Cil or Prb on the survival rate of Mock cells treated with Imp: Imp 0–1 mmol/L plus the named inhibitor 200 μmol/L
# hOAT3-HEK293 cells = test: Cytotoxicity of Imp, CCK-8 assay, hOAT3-HEK293 cells; assay type: cell-based, human; conditions: 24 h; for Survival rate of hOAT3-HEK293 cells with Imp in the presence of Cil or Prb: Imp 1 mmol/L plus the named inhibitor 200 μmol/L
# [1] = Imp-induced nephrotoxicity in rabbits; assay type: in vivo, rabbit; conditions: for Imp-induced acute structural damage of rabbit kidney after coadministration: Imp 200 mg/kg i.v. plus Cil 200 mg/kg or Prb 50 mg/kg
# [2] = calculated from maximum plasma concentration and plasma protein binding
# [3] = cited from earlier work
# [4] = human; cited from earlier work
# hOAT1 = target: T1, hOAT1 (Homo sapiens, UniProt Q4U2R8); test: Imp uptake by hOAT1-HEK293 cells; assay type: cell-based; conditions: 100 μmol/L, 10 min, with or without Prb 200 μmol/L
# T1 sequence (Q4U2R8 1-563): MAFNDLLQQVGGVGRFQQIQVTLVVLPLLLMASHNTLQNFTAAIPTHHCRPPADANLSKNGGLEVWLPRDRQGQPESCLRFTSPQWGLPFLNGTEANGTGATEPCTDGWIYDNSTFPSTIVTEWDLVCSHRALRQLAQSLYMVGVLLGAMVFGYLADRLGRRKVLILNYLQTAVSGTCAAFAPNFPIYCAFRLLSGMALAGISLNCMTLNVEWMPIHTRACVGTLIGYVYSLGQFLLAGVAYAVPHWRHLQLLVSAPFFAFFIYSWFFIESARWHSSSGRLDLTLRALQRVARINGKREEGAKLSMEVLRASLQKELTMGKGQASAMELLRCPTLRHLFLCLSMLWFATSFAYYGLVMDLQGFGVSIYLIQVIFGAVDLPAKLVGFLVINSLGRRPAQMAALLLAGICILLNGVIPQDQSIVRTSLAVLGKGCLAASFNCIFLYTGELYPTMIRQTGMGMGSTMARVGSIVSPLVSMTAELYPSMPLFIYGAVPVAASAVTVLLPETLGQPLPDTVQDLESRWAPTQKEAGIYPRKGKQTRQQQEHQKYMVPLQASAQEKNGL
# hOAT1-HEK293 cells = test: Cytotoxicity of Imp, CCK-8 assay, hOAT1-HEK293 cells; assay type: cell-based, human; conditions: Imp alone 1 mmol/L, 24 h
# [5] = Pharmacokinetics of Imp in rabbits; assay type: in vivo; conditions: male, New Zealand white, rabbit, iv, 200 mg/kg
# raOATs = test: Imp uptake by rabbit primary proximal tubule cells; assay type: cell-based; conditions: Imp 100 μmol/L, 10 min, vs si-Control cells
# hOAT3 = target: T2, hOAT3 (Homo sapiens, UniProt Q8TCC7); conditions: 100 μmol/L, 10 min, with or without Prb 200 μmol/L
# T2 sequence (Q8TCC7 1-542): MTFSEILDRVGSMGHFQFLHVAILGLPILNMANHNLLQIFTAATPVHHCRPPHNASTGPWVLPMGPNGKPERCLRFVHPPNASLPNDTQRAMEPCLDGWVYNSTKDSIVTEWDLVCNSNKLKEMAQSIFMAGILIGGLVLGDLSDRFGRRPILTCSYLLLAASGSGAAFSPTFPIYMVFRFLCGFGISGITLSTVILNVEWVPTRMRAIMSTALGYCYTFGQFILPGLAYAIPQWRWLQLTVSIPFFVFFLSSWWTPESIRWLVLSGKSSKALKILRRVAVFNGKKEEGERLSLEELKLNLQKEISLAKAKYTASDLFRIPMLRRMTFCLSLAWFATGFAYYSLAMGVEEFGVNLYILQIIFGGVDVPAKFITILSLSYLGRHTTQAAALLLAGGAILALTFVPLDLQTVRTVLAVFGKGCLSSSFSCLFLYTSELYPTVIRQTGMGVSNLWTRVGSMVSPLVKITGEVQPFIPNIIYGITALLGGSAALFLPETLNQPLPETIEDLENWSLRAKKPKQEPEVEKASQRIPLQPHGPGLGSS
# [6] = Imp 200 mg/kg i.v. with or without Cil 200 mg/kg or Prb 50 mg/kg, 48 h
smiles,measurement,setting,value
"CC1(C)C[C@@H]1C(=O)N/C(=C\CCCCSC[C@H](N)C(=O)O)C(=O)O [Cil, cilastatin]",Effect of Cil or Prb on the survival rate of Mock cells treated with Imp,Mock-HEK293 cells,little effect
same,Survival rate of hOAT3-HEK293 cells with Imp in the presence of Cil or Prb,hOAT3-HEK293 cells,66.3%
same,Imp-induced acute structural damage of rabbit kidney after coadministration,[1]; 48 h,significantly reduced
same,Peak level of free Cil in human,[2],about 140 μmol/L
same,Maximum clinical plasma concentration of Cil,[3]; human,88 µg/mL
same,Plasma protein binding of Cil,[4],approximately 40%
"C[C@@H](O)[C@H]1C(=O)N2C(C(=O)O)=C(SCCN=CN)C[C@H]12 [Imp, Imipenem]","Substrate of hOAT1 (uptake vs Mock cells, inhibited by Prb)",hOAT1,substrates of hOAT1 and hOAT3
same,Survival rate of Mock-HEK293 cells,Mock-HEK293 cells; Imp alone 1 mmol/L,85.8%
same,Survival rate of hOAT1-HEK293 cells,hOAT1-HEK293 cells,47.5%
same,Survival rate of hOAT3-HEK293 cells,hOAT3-HEK293 cells; Imp alone 1 mmol/L,27.2%
same,Renal histology (HE and PAS staining),"[1]; Imp 200 mg/kg i.v. alone, 48 h",severe renal damage
same,Body weight 0 h,"[1]; Imp 200 mg/kg i.v. with or without Cil 200 mg/kg or Prb 50 mg/kg, 0 h (baseline)",2.87 ± 0.24 kg
same,Body weight 48 h,[1]; [6],2.69 ± 0.24 kg
same,Kidney weight,[1]; [6],13.2 ± 1.5 g
same,Kidney/body weight ratio,[1]; [6],4.81 ± 0.29 ^a g/kg
same,AUC(0-t),[5]; plasma,289 ± 48.7 µg·h/mL
same,clearance,[5]; plasma,11.9 mL/min/kg
same,half-life,[5]; plasma,58 ± 4.2 min
same,CL renal,[5]; urine,2.78 mL/min/kg
same,Increase in intracellular level of Imp in rPTCs transfected with si-DHP-I,raOATs,30%
same,"Substrate of hOAT3 (uptake vs Mock cells, inhibited by Prb)",hOAT3,substrates of hOAT1 and hOAT3
same,Renal excretion of Imp,[3],~70%
"CCCN(CCC)S(=O)(=O)c1ccc(C(=O)O)cc1 [Prb, probenecid]",Effect of Cil or Prb on the survival rate of Mock cells treated with Imp,Mock-HEK293 cells,little effect
same,Survival rate of hOAT3-HEK293 cells with Imp in the presence of Cil or Prb,hOAT3-HEK293 cells,76.2%
same,Imp-induced acute structural damage of rabbit kidney after coadministration,[1]; 48 h,significantly reduced
